Results reported in patent publication US9556135B2, “Amino-dihydrothiazine and amino-dioxido dihydrothiazine compounds as beta-secretase antagonists and methods of use” (Amgen Inc., priority 2012, dated 2017).

What was measured:
Aβ in lumbar CSF = conditions: after oral dosing of 30 or 90 mg, healthy volunteers; cited from earlier work
[1] = system: pigment epithelium of the rat's eye; conditions: higher compound dose given for three months; cited from earlier work
[2] = system: Aβ40 in conditioned medium of cells stably expressing Amyloid Precursor Protein (APP); assay: In vitro BACE cell-based assay (HEK cell assay), Aβ40 sandwich ELISA
Procedure: In Vitro BACE Cell-Based Assay
The cell-based assay measures inhibition or reduction of Aβ40 in conditioned medium of test compound treated cells expressing amyloid precursor protein.
Cells stably expressing Amyloid Precursor Protein (APP) were plated at a density of 40K cells/well in 96 well plates (Costar). The cells were cultivated for 24 hours at 37° C. and 5% CO2 in DMEM supplemented with 10% FBS. The test compounds were then added to cells in 10-point dose response concentrations with the starting concentration being either 100 μM or 10 μM. The compounds were diluted from stock solutions in DMSO and the final DMSO concentration of the test compounds on cells was 0.1%. After 24 h of incubation with the test compounds the supernatant conditioned media was collected and the Aβ 40 levels were determined using a sandwich ELISA. The IC50 of the compound was calculated from the percent of control or percent inhibition of Aβ 40 as a function of the concentration of the test compound.
The sandwich ELISA to detect Aβ 40 was performed in 96 well microtiter plates, which were pre-treated with goat anti-rabbit IgG (Pierce). The capture and detecting antibody pair that were used to detect Aβ 40 from cell supernatants were affinity purified pAb40 (Biosource) and biotinylated 6E10 (Signet Labs Inc.), respectively. The optimal concentration for the pAb40 antibody was 3 μg/ml in Superblock/TBS (Pierce) that was supplemented with 0.05% Tween 20 (Sigma).
Cellular supernatants were incubated with the capture antibody for 3 h at 4° C., followed by 3 wash steps in TBS-tween (0.05%). The detecting antibody incubation was for 2 h at 4° C., again followed by the wash steps as described previously. The final readout of the ELISA is Time-Resolved Fluorescence (counts per minute) using Delfia reagents Streptavidin-Europium and Enhancement solutions (Perkin Elmer) and the Victor 2 multilabel counter (Perkin Elmer).

Cathepsin D (Cat D) = Cathepsin D (Cat D) (Homo sapiens (Human), UniProt P07339); assay: In vitro enzymatic Cathepsin D (Cat D) FRET assay; type: biochemical; conditions: read-out: CatD IC50
Cathepsin D (Cat D), sequence (P07339 65-412, species assumed): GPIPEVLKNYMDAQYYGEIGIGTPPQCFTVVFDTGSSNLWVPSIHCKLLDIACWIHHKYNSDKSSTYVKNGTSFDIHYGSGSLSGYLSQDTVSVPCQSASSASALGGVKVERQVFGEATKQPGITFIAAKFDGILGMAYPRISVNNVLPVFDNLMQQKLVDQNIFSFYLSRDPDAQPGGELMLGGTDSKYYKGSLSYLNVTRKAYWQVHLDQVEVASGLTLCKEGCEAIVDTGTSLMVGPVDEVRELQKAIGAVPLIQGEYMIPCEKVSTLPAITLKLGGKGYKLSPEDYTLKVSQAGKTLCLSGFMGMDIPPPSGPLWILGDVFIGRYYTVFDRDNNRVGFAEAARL
Procedure: In Vitro Enzymatic Cathepsin D (Cat D) FRET (Fluorescence Resonance Energy Transfer) Assay Recombinant Cat D was expressed in CHO cells. […] The Cat D enzyme (9 nM) is pre-incubated for one hour with inhibitors, typically in about 1 uL of DMSO according to a serial dilution, is added thereto. […] The FRET assay is terminated with by addition of Tris buffer, which raises the pH to neutrality, and the fluorescence is determined. The FRET substrate is a peptide with commercially available fluorophore and quencher, on opposite sides of the BACE cleavage site. The Cat D substrate peptide sequence is based on sequence #1 of Table 1 from Gulnik et al. […] Where available, the in-vitro Cat D FRET assay data for each of the Examples, conducted by the first procedure, is provided.

[3] = biological target: Beta Secretase enzyme (BACE1) (Homo sapiens (Human), UniProt P56817); assay: In vitro enzymatic BACE FRET assay; type: biochemical
Beta Secretase enzyme (BACE1), sequence (P56817 46-501): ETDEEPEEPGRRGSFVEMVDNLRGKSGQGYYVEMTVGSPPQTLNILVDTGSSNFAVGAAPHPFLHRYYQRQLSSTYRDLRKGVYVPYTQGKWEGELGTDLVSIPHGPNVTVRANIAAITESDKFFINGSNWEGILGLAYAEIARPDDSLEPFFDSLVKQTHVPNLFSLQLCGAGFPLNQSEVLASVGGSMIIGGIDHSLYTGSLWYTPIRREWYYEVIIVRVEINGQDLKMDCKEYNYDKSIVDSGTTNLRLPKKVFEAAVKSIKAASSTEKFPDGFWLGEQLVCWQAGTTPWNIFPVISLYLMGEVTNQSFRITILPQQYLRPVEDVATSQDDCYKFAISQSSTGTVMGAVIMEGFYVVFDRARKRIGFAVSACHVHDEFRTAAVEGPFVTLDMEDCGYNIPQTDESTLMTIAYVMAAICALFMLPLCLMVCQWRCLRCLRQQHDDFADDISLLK
Procedure: In Vitro Enzymatic BACE FRET (Fluorescence Resonance Energy Transfer) Assay (Enzyme Assay Data in the Example Tables I and II)
The assay buffer used in this screen is 0.05 M acetate, pH 4.2, 10% DMSO final, 100 uM genapol (which is a nonionic detergent, below its Critical Micelle Concentration). […] This assay is effectively started by the addition of FRET substrate (50 nM) and the combination is incubated for one hour. The FRET assay is terminated with by addition of Tris buffer, which raises the pH to neutrality, and the fluorescence is determined. The FRET substrate is a peptide with commercially available fluorophore and quencher, on opposite sides of the BACE cleavage site. Proteolytic cleavage of the FRET substrate releases quenching of fluorescence (excitation […] and […]).

Molecule | IC50 (Cathepsin D (Cat D)) | IC50 ([2]; average IC50) | IC50 ([3]; average IC50) | other results
C[C@@]1(c2cc(-c3cncnc3)c(F)cc2F)CCSC(N)=N1 [LY2811376, (S)-4-(2,4-difluoro-5-pyrimidin-5-yl-phenyl)-4-methyl-5,6-dihydro-4H-[1,3]thiazin-2-ylamine] |  |  |  | Aβ reductions in lumbar CSF (Aβ in lumbar CSF): Prominent and long-lasting Aβ reductions in lumbar CSF
C[C@@]1(c2cc(-c3cncnc3)c(F)cc2F)CCSC(N)=N1 [LY 2811376] |  |  |  | rat toxicology finding [1]: damaged the pigment epithelium of the rat's eye
N-(3-((4aR,7aS)-3-amino-2,2-dimethyl-1,1-dioxido-7,7a-dihydro-2H-furo[3,4-b][1,4]thiazin-4a(5H)-yl)-4-fluorophenyl)-5-methoxy-3-methyl-2-pyridinecarboxamide,N-(3-((4aS,7aR)-3-amino-2,2-dimethyl-1,1-dioxido-7,7a-dihydro-2H-furo[3,4-13][1,4]thiazin-4a(5H)-yl)-4-fluorophenyl)-5-methoxy-3-methyl-2-pyridinecarboxamide [Example 428] | 309000 nM |  |  | IC50 ([2]; average IC50, cell assay): 37.3 nM; IC50 ([3]; average IC50, enzyme assay): 9.71 nM
N-(3-((7R)-9-amino-7-(fluoromethyl)-5,5-dioxido-5-thia-8-azaspiro[3.5]non-8-en-7-yl)-4-fluorophenyl)-3-chloro-1,7-naphthyridin-8-amine,N-(3-((7S)-9-amino-7-(fluoromethyl)-5,5-dioxido-5-thia-8-azaspiro[3.5]non-8-en-7-yl)-4-fluorophenyl)-3-chloro-1,7-naphthyridin-8-amine [Example 243] | 363000 nM | 77.9 nM | 1.31 nM | 
N-(3-((7R)-9-amino-7-(fluoromethyl)-5,5-dioxido-5-thia-8-azaspiro[3.5]non-8-en-7-yl)-4-fluorophenyl)-5-(difluoromethoxy)-3-methyl-2-pyridinecarboxamide,N-(3-((7S)-9-amino-7-(fluoromethyl)-5,5-dioxido-5-thia-8-azaspiro[3.5]non-8-en-7-yl)-4-fluorophenyl)-5-(difluoromethoxy)-3-methyl-2-pyridinecarboxamide [Example 410] | 170000 nM | 11.9 nM | 2.3 nM | 
